The test system of experiment [1] is 57 mer-RNA aptamer (RNA, aptamer) GAGCCUAAAACAUACCAGAGAAAUCUGGAGAGGUGAAGAAUACGACCACCUAGGCUC
In words: competitive enzyme-linked aptamer assay (ELAA). To be noted: sodium phosphate 10 mM, no added NaCl, no Mg2+; pH 7.2, RT; TC-HRP displaced; relative to TC = 100% at 50% B/B0; apparent.

The subject of experiment [2] is 76 mer-DNA aptamer (DNA, aptamer) CGTACGGAATTCGCTAGCCCCCCGGCAGGCCACGGCTTGGGTTGGTCCCACTGCGCGTGGATCCGAGCTCCACGTG
In words: competitive enzyme-linked aptamer assay (ELAA). To be noted: sodium phosphate 10 mM, no added NaCl, no Mg2+; pH 7.2, RT; TC-HRP displaced; relative to TC = 100% at 50% B/B0; apparent.

Regarding `CN(C)[C@@H]1C(=O)C(C(N)=O)=C(O)[C@@]2(O)C(=O)C3=C(O)c4c(O)cccc4[C@@](C)(O)[C@H]3[C@H](O)[C@@H]12`, the Cross-reactivity in experiment [1] came to 35.3%; in experiment [2] it was 129.7%.

For the origin of these results see paper PMC3324139 (2012).
